Patent US5667764A, “Compounds, compositions and methods for binding bio-affecting substances to surface membranes of bio-particles” (Zynaxis, Inc., priority 1992, dated 1997)

Key:
[1] = system: cells (red cell membranes); experiment: Number of molecules of compound incorporated per cell; assay type: cell-based; details: 10 μM compounds
Description: Number of molecules of compound incorporated per cell was determined for cells labeled with 10 μM compounds. An aliquot of 10^6 cells (10 ul) was withdrawn from the washed cells after final resuspension and counting, compounds were extracted from the cell membrane by admixture with 250 μl of 100% ethanol, and the fluorescence intensity of 200 μl of the extract was measured using a Fluoroskan II fluorescence microplate reader and filter combination. Concentration of compound in each extract was determined from a calibration curve of known compound concentrations made up in 100% ethanol and measured on the Fluoroskan II. Number of molecules of compound per cell was then calculated from the known extract concentration, total volume of extract, and known number of cells extracted. Calculated values were (4.0±0.4)×10^6 for compound T (1.3±0.2)×10^6 for compound AA and (2.5±0.7)×10^6 for compound AB.

[2] = In vivo loss of dye from labeled, reinjected erythrocytes; details: rabbit, iv
Description: *Half life for loss of dye from rabbit erythrocytes after labeling and

membrane ghosts = experiment: Membrane binding stability (MBS) assay in membrane ghosts with 5% albumin; details: 24 hours; for MBS: Table III
Outline: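 Labeled membrane ghosts were suspended at decreasing numbers in a fixed volume of saline with 5% serum albumin. After 24 hours, label released into the supernatant after pelleting was expressed as percent of total. MBS is the area under the percent-retention versus ghosts/ml curve between 5×10^7 and 4×10^8 ghosts/ml.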

synovial cells = experiment: Synovial distribution after intra-articular injection; assay type: in vivo; details: 1 hour after injection into the knee, 10 μM
Description: To estimate the homogeneity or heterogeneity of incorporation by synovial cells after intra-articular injection, approximately 0.1 mL of a 10 μM solution of an iodide salt of compound T (see Example 2, above) in 300 mOsM pH 7.0 glucose was injected into the knee as described in Example 10. After 1 hour, the animal was sacrificed, and both injected and uninjected knee joints were dissected. Preparation of whole joint cross sections was not feasible because demineralization is required to cut thin sections and demineralizing solvents remove compounds of the invention from tissue. Therefore the infrapatellar fat pads which underlie the kneecap and form one boundary of the synovial cavity were carefully removed, snap frozen on dry ice, and stored at -80° until frozen sections could be prepared. Thick (10μ) cryostat sections were cut, adhered to glass slide, and evaluated by light and fluorescence microscopy.
(The synovial layer is only 1-2 cells thick in a normal joint but becomes thickened due to hyperproliferation in an arthritic joint.) The rest of the tissue was composed primarily of large fat cells.

[3] = system: red blood cell ghosts (plasma membrane); experiment: Membrane retention coefficient (MRC) in red blood cell ghosts; assay type: binding; details: 24 hr; Table II
Outline: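 Red blood cell ghosts (~1×10^9/ml) were labelled 10 min with compound diluted in iso-osmotic sucrose from ethanol stocks, then washed repeatedly in PBS with 10% FBS over ≥24 h. Total and supernatant compound were measured after n-butanol extraction (fluorescence for fluorescent compounds), and MRC was calculated from these at each wash or time point.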

[4] = system: erythrocyte membrane ghosts; experiment: Relative membrane retention in erythrocyte membrane ghosts (iodination study); assay type: binding; details: 24 hours, 37° C., PBS+EDTA+5% BSA
Description: Relative membrane retention was determined using erythrocyte membrane ghosts prepared by NH4 Cl lysis (Slezak and Horan, Blood, supra). Ghosts were labeled at 4×10^8 /ml with 10 μM compounds for 5 minutes at room temperature, using previously described procedures. However, post-labeling washes were carried out using PBS containing 1 mM EDTA and 5% BSA. After the final wash, ghosts were resuspended at 4×10^8 /ml in PBS+EDTA+5% BSA and incubated for 24 hours at 37° C. At 24 hours, duplicate 50 μl aliquots were withdrawn from a) the well mixed suspension of ghosts (for determination of total compound present), and b) the supernatant remaining after ghosts were pelleted for 15 minutes at 12,500×g (for determination of unbound compound present). Aliquots were extracted by admixture with 200 μl of 100% ethanol and fluorescence intensity of each extract measured using the Fluoroskan II fluorescence microplate reader. Percent compound retained was calculated as
total compound--unbound compound×100/total compound

cells (red cells) = details: 20 uM
[5] = system: vascular smooth muscle cells (SMC); details: cited from earlier work
thrombin = thrombin (Homo sapiens, UniProt P00734+P01008); experiment: Thrombin inhibition (fibrin generation in diluted human plasma); assay type: biochemical; details: 0.5 nM thrombin; conjugate on ghosts (@1.43×10^7 ghosts/200 ul)
thrombin, sequence (P01008 33-464, one chain of several): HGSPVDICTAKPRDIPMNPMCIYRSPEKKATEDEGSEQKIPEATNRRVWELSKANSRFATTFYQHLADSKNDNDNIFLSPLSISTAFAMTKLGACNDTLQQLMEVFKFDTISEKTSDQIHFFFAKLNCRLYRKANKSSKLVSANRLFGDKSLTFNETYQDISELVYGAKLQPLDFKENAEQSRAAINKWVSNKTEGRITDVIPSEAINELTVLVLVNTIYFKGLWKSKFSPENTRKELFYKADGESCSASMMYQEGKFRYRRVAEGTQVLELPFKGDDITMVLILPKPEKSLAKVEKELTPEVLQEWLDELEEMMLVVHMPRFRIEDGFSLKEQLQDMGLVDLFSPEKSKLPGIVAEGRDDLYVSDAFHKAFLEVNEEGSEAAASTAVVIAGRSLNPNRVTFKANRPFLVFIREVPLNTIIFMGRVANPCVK
Description: The concentration response for unconjugated anti-coagulant is provided for comparison. Percentage inhibition of thrombin response (y-axis) is recorded as a function of the molar concentration of compound tested (lower x-axis; log scale), and of the number of carrier cells per test sample (upper x-axis; log scale).
To determine whether the anticoagulative properties of the compounds of the invention were retained when coated on the surface of biomembranes, in vitro studies were performed to assess the ability of the compound of invention to inhibit the coagulation enzyme, thrombin. […] Concentration of compound 21 on ghosts was assessed by placing known numbers of ghosts in microtiter plate wells and comparing the observed fluorescence to the fluorescence produced by known standard concentrations of the compound. […] 211:10 (1987), wherein 100 μl a 1:10 dilution of human plasma in phosphate buffered saline (PBS) buffer, 50 μl of PBS containing varying concentrations of labeled ghosts or standard thrombin inhibitor, and 50 μl of PBS containing a constant amount (0.5 nM) of thrombin were added to microtiter plate wells and absorbance changes at 405 nm were recorded in a spectrophotometric plate reader (Bio-Tek) over a 60 minute period. […] The absorbance changes over time data were plotted and area-under-the-curve measurements performed by computer. […]

SMC cell surfaces = details: cited from earlier work
myointimal thickening = details: cell culture or animals after arterial injury; cited from earlier work

half-life [2] [days] | MBS (% of max.) (membrane ghosts; Table II) | MBS (membrane ghosts) [%] | Compound | Number of molecules of compound incorporated per cell [1] | Labeling of infrapatellar fat pad cross sections (synovial cells) | MRC# (at 24 hr.) [3] | Percent compound retained [4] [%] | Viability and recovery (cells (red cells)) | Inhibition of cell growth / antiproliferative activity [5] | EC50 (thrombin) [nM] | Binding to SMC cell surfaces (SMC cell surfaces) | Effect of heparin on smooth muscle cells / after arterial injury (myointimal thickening)
130 | 85 ± 1.7 % of max. | 85 ± 1.7 | CCCCCCCCCCCCCCCCCCCCCCN1C(=CC=CC2=[N+](CCCCCCCCCCCCCC)c3ccccc3C2(C)C)C(C)(C)c2ccccc21 [T] | (4.0±0.4)×10^6 molecules of compound per cell | bright and relatively homogeneous labeling was essentially confined to the synovial cell layer | 97 ± 0.1 | 91.9±2.9 |  |  |  |  | 
 |  | 91 ± 0.5 | CCCCCCCCCCCCCCCCCCCCCC[N+]1=C(C=CC=C2N(CCCCCCCCCCCCCC)c3ccc(CNC=O)cc3C2(C)C)C(C)(C)c2ccccc21 [AB] | (2.5±0.7)×10^6 molecules of compound per cell |  |  | 96.8±1.3 | 70-80% |  |  |  | 
 |  |  | Heparin |  |  |  |  |  | inhibit the growth of several different cell types, including vascular smooth muscle cells (SMC) | 1.03 | binds to SMC cell surfaces via high affinity binding sites and is taken up intracellularly | decreased growth and reduced myointimal thickening and cell proliferation
